Measurements: patent US12702660B2, “Method for treating cancer with an oral dosage form of an estrogen receptor-alpha inhibitor” (Eisai R&D Management Co., Ltd., priority 2019, dated 2026)
Read-outs that look alike come from different tables or passages of the source.

Experiment: Plasma PK of 450 mg capsules in fasted and fed patients, dose expansion
Format: in vivo, human
Details: 450 mg QD capsules; for CLss/F / AUC(0-inf) / Cmax / half-life / AUC(0-t) / Vd / Vd/F: Geometric Mean (GeoCV %); for Tlag / Tmax: Median (Min, Max); for AUC0-24 (per 1 mg of API) / AUC0-inf (per 1 mg of API) / AUC0-t (per 1 mg of API) / Cmax (per 1 mg of API): normalized from Table 13; for AUC(0-inf) / Cmax / half-life / AUC(0-t) / Vd / Vd/F / Tmax: human, plasma, oral, 450 mg; for Vd: read-out: Vss; for Vd/F: read-out: Vz/F
Description: Blood samples were collected at the planned time points from each patient and centrifuged. The plasma portion of each sample was then transferred to a K2EDTA tube, which was then shipped to a bioanalytical lab for concentration measurement using LC-MS/MS. The concentration data were then analyzed using Phoenix® WinNonlin software to obtain PK parameters. The obtained PK parameters were further summarized using analytical software.
Blood samples (approximately 5 mL each) were collected from human patients pre-dose and at various hourly time points post-dose. Plasma concentrations of H3B-6545 were determined using a validated high-performance liquid chromatography/tandem mass spectrometry (LC-MS/MS) method. The lower limit of quantification was 0.100 ng/mL.
The PK Analysis Set included subjects who received H3B-6545 drug product in capsules or tablets and had sufficient evaluable plasma concentration data to derive at least 1 primary PK parameter in each treatment. Plasma concentrations of H3B-6545 (as free base) were tabulated and summarized at each nominal time using descriptive statistics (number of subjects, arithmetic mean with standard deviation [SD], coefficient of variation [CV %], geometric mean, median, minimum, and maximum) as appropriate. Individual and mean (±SD) plasma concentration-time profiles were provided for each treatment.
Pharmacokinetic parameters of H3B-6545 were calculated using noncompartmental methods, using an appropriate model for plasma data and extravascular administration. The PK parameters included, but were not limited to, area under the curve to the time of the last quantifiable concentration (AUC0-t), maximum concentration (Cmax), and time at which the maximum concentration occurred (tmax). If data permitted, the area under the plasma concentration-time curve extrapolated to infinity (AUC0-inf), terminal elimination half-life (t1/2), apparent total body clearance (CL/F), total systemic clearance after oral administration at steady state (CLss/F), apparent volume of distribution during the terminal phase (Vz/F), apparent steady-state volume of distribution (Vss), accumulation ratio for Cmax (RCmax) and accumulation ratio of AUC0-24 (RAUC) were also derived.
Table 3 details PK parameters and profiles of human patients receiving capsules prepared as in Example 1. Patients received a total equivalent dosage of 450 mg of Formula I, as identified in Table 13. Table 14 has normalized the AUC0-t, AUC0-24, AUC0-inf and Cmax PK parameters illustrated in Table 13 to plasma PK parameters per 1 mg of active pharmaceutical ingredient (API).

CN(C)C(=O)/C=C/CNCCOc1ccc(/C(=C(/CC(F)(F)F)c2ccccc2)c2ccc3[nH]nc(F)c3c2)cn1 [H3B-6545, (E)-N,N-dimethyl-4-[2-[5-[(Z)-4,4,4-trifluoro-1-(3-fluoro-1H-indazol-5-yl)-2-phenylbut-1-enyl]pyridin-2-yl]oxyethylamino]but-2-enamide]
CLss/F (Dose Expansion-Fasted): 36.7 (65.4); 18 L/h | Tlag (Dose Expansion-Fasted): 0 (0-0); 18 h | AUC0-24 (per 1 mg of API) (Dose Expansion-Fasted): 27.2 ng·h/mL/mg | AUC0-inf (per 1 mg of API) (Dose Expansion-Fasted): 36.6 ng·h/mL/mg | AUC0-t (per 1 mg of API) (Dose Expansion-Fasted): 27.7 ng·h/mL/mg | Cmax (per 1 mg of API) (Dose Expansion-Fasted): 2.4 ng/mL/mg | CLss/F (Dose Expansion-Fed): 20.5 (42.7); 13 L/h | Tlag (Dose Expansion-Fed): 0 (0-0); 17 h | AUC0-24 (per 1 mg of API) (Dose Expansion-Fed): 43.3 ng·h/mL/mg | AUC0-inf (per 1 mg of API) (Dose Expansion-Fed): 56.8 ng·h/mL/mg | AUC0-t (per 1 mg of API) (Dose Expansion-Fed): 35.8 ng·h/mL/mg | Cmax (per 1 mg of API) (Dose Expansion-Fed): 3.5 ng/mL/mg | AUC(0-inf) (Dose Expansion-Fasted): 16500 ng·h/mL | Cmax (Dose Expansion-Fasted): 1090 ng/mL | half-life (Dose Expansion-Fasted): 654 min | AUC(0-t) (Dose Expansion-Fasted, read-out: AUC0-24): 12300 ng·h/mL | AUC(0-t) (Dose Expansion-Fasted, read-out: AUC0-t): 12500 ng·h/mL | Vd (Dose Expansion-Fasted): 597 L | Vd/F (Dose Expansion-Fasted): 566 L | Tmax (Dose Expansion-Fasted): 4 h | AUC(0-inf) (Dose Expansion-Fed): 25500 ng·h/mL | Cmax (Dose Expansion-Fed): 1560 ng/mL | half-life (Dose Expansion-Fed): 530 min | AUC(0-t) (Dose Expansion-Fed, read-out: AUC0-24): 19500 ng·h/mL | AUC(0-t) (Dose Expansion-Fed, read-out: AUC0-t): 16100 ng·h/mL | Vd (Dose Expansion-Fed): 350 L | Vd/F (Dose Expansion-Fed): 279 L | Tmax (Dose Expansion-Fed): 6 h
